Measured values published in patent publication US20060275339A1, “Use of antiseptic active principles in pmma bone cements” (Biomet Deutschland, priority 2003, published 2006).

Test system: germs
Assay: Prevention of colonisation of the PMMA bone cement surface with germs (FIGS. 1a and 1b)
Assay type: cell-based
Details: 0.155% by weight admixed with PMMA bone cement (PALAMED plain); compared with admixing of 0.86% by weight of gentamicin

For polyhexamethylenebiguanide, the “biological efficacy in preventing colonisation of the cement surface with germs” value was “same (or higher) biological efficacy”.
